Tests used:
Renal Hypertensive Rats = test: Antihypertensive activity in renal hypertensive rats (tail-cuff systolic blood pressure and heart rate); format: in vivo, rats (Male Sprague-Dawley); conditions: single dose po, nicardipine 3 mg/kg, ACE inhibitor 10 mg/kg, combination 3 + 10 mg/kg, n = 6
Description: Twenty-four renal hypertensive rates (Male Sprague-Dawley, 140-170g) showing systolic blood pressure of 160 mmHg or greater were chosen for the study. Using the random block design, they were distributed into four groups: 3 groups for compound treatments and one for vehicle control. They were randomly assigned to the treatments. The test compounds were dissolved in deionized water at concentrations such that 1.0 ml of solution was administered per 100 grams of body weight.
At approximately 17 hours prior to dosing, food was removed from the rat cages. On the morning of testing, the rats were dosed with the assigned compound or vehicle by gavage. Immediately after dosing, the rats were put in restrainers and placed in a heated chamber, 30 degrees centrigrade, for four hours. After the four hour reading, the rats were returned to their home cage for 3 hours and then were put in the restrainer again for the hour 8 reading.
Using a tail blood pressure cuff, blood pressure curves and tail pulses were simultaneously monitored on a 4-channel MFE recorder digitized by a computer system. At least four consecutive traces (at 30 second intervals) were recorded for each rat at 1, 2, 4 and 8 hour post-dose.
The computer system has been programmed to find systolic blood pressure (mmHg) and heart rate (beats/min) for each recording and them calculate the mean SBP and the mean HR of each rat at each observation time. Manual editing and confirmation of the analyses were carried out by the investigator on any systolic blood pressure traces that were more than two standard deviations outside the mean blood pressure readings for that animal at a given time period.
The SBP's of the animals in each dose group were compared to the SBP's of the animals in the control group at each observation time using oneway analysis of variance. Significance was determined using the Dunnet test.

CD rats = conditions: rat, in vivo; cited from earlier work

Row | Compound | HR % Chg (Chg from Control) (Renal Hypertensive Rats; 1 Hr post-dose) | HR b/min. Chg (Chg from Control) (Renal Hypertensive Rats; 1 Hr post-dose) | SBP % Chg (Chg from Control) (Renal Hypertensive Rats; 1 Hr post-dose) | SBP mmHg Chg (Chg from Control) (Renal Hypertensive Rats; 1 Hr post-dose) | HR % Chg (Chg from Control) (Renal Hypertensive Rats; 2 Hr post-dose) | HR b/min. Chg (Chg from Control) (Renal Hypertensive Rats; 2 Hr post-dose) | SBP % Chg (Chg from Control) (Renal Hypertensive Rats; 2 Hr post-dose) | SBP mmHg Chg (Chg from Control) (Renal Hypertensive Rats; 2 Hr post-dose) | HR % Chg (Chg from Control) (Renal Hypertensive Rats; 4 Hr post-dose) | HR b/min. Chg (Chg from Control) (Renal Hypertensive Rats; 4 Hr post-dose) | SBP % Chg (Chg from Control) (Renal Hypertensive Rats; 4 Hr post-dose) | SBP mmHg Chg (Chg from Control) (Renal Hypertensive Rats; 4 Hr post-dose) | HR % Chg (Chg from Control) (Renal Hypertensive Rats; 8 Hr post-dose) | HR b/min. Chg (Chg from Control) (Renal Hypertensive Rats; 8 Hr post-dose) | SBP % Chg (Chg from Control) (Renal Hypertensive Rats; 8 Hr post-dose) | SBP mmHg Chg (Chg from Control) (Renal Hypertensive Rats; 8 Hr post-dose) | clinical sign noted previously in studies in rats (CD rats)
1 | CCOC(=O)[C@H](CCc1ccccc1)N[C@@H](C)C(=O)N1Cc2cc(OC)c(OC)cc2C[C@H]1C(=O)O [2-{2-[(1-ethoxycarbonyl)-3-phenylpropyl]amino}-1-oxopropyl-1,2,3,4-tetrahydro-6,7-dimethoxy-3-isoquinoline carboxylic acid] | 29% | 87 b/min. | -8% | -14 mmHg | 4% | 11 b/min. | -7% | -13 mmHg | 4% | 10 b/min. | 3% | 4 mmHg | -11% | -33 b/min. | -7% | -12 mmHg | 
2 | COC(=O)C1=C(C)NC(C)=C(C(=O)OCCN(C)Cc2ccccc2)C1c1cccc([N+](=O)[O-])c1 (stereo not drawn) [nicardipine, 2,6-dimethyl-4-(3ʹ-nitrophenyl)-1,4-dihydropyridine-3,5-dicarboxylic acid-3-methyl ester-5-β-(N-benzyl-N-methylamino)-ethyl ester] | 22% | 65 b/min. | -3% | -5 mmHg | 10% | 30 b/min. | -4% | -7 mmHg | 9% | 25 b/min. | -6% | -10 mmHg | -2% | -4 b/min. | -20% | -35 mmHg | pink skin (peripheral vasodilation)
